Measurements published in ChEMBL document CHEMBL1201862, “PubChem BioAssay data set” (2004).
Active and inactive are the calls of the source.

Columns and labels:
Type in all cases: functional
[1] = biological target: Tyrosine-protein kinase BTK (Homo sapiens, UniProt Q06187)
[2] = biological target: T1, Tyrosine-protein kinase receptor TYRO3 (Homo sapiens, UniProt Q06418);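 also: TYRO3 value obtained as one member of a kinome-wide profiling panel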
T1 sequence (Q06418 whole entry): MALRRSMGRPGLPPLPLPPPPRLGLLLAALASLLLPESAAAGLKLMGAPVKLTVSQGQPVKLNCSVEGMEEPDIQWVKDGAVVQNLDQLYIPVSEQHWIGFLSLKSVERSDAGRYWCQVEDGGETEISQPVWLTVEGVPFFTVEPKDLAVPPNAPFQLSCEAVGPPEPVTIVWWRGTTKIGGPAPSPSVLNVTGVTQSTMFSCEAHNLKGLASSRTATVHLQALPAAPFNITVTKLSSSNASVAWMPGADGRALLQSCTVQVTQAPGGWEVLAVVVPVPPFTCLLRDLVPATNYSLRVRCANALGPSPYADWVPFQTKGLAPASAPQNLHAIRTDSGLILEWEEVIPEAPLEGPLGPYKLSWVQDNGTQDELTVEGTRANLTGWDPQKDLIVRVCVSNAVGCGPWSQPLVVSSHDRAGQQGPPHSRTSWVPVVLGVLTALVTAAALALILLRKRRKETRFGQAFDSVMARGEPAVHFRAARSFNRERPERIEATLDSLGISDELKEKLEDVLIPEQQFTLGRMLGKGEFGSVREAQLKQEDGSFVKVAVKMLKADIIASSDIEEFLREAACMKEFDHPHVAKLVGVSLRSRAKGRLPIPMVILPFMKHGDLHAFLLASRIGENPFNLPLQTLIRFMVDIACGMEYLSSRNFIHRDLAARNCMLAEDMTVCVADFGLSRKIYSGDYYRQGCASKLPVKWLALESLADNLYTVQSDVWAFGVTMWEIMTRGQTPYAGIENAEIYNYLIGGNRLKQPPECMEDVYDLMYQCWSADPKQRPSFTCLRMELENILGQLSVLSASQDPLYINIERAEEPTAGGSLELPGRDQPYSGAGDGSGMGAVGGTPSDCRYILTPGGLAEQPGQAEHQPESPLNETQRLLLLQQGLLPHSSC

[3] = biological target: cAMP-dependent protein kinase catalytic subunit alpha (Homo sapiens, UniProt P17612)
[4] = biological target: Death-associated protein kinase 3 (Homo sapiens, UniProt O43293);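 also: measured as one member of a kinome-wide profiling panel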
[5] = biological target: Serine/threonine-protein kinase PAK 4 (Homo sapiens, UniProt O96013);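 also: value obtained within a kinome profiling panel in which PAK4 was one of the panel members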
Protein RecA = biological target: T2, Protein RecA (Mycobacterium tuberculosis, UniProt P9WHJ3); assay: Fluorescence Cell-Free Homogeneous Dose Retest to Identify Inhibitors of RecA-Intein Splicing Activity. [Related pubchem assays (depositor defined):AID2097, AID2223, AID489010, AID492950]
T2 sequence (P9WHJ3 whole entry): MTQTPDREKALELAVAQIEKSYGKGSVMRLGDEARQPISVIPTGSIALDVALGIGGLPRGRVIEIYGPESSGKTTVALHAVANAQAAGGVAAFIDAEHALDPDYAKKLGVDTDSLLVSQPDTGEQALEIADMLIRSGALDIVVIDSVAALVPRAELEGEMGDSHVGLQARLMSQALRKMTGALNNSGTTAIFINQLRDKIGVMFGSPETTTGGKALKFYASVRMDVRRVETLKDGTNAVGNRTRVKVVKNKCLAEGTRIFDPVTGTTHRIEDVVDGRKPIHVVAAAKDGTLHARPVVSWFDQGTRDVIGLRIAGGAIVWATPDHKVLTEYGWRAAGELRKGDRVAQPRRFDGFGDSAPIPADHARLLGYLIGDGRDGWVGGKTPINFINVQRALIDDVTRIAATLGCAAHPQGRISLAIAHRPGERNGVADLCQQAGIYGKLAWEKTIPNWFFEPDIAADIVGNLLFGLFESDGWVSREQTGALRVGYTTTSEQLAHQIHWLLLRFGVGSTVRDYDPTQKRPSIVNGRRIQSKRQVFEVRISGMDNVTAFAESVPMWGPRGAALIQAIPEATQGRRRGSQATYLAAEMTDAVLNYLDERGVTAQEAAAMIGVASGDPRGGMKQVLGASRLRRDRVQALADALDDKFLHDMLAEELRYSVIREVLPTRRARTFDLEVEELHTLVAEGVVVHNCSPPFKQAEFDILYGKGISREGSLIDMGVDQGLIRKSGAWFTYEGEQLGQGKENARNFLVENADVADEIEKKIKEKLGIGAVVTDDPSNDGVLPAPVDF

[6] = biological target: T3, Sentrin-specific protease 7 (Homo sapiens, UniProt Q9BQF6);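 also: Luminescence-based dose-response confirmation of ultra-high-throughput screening hits, measuring inhibition of SENP7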
T3 sequence (Q9BQF6 whole entry): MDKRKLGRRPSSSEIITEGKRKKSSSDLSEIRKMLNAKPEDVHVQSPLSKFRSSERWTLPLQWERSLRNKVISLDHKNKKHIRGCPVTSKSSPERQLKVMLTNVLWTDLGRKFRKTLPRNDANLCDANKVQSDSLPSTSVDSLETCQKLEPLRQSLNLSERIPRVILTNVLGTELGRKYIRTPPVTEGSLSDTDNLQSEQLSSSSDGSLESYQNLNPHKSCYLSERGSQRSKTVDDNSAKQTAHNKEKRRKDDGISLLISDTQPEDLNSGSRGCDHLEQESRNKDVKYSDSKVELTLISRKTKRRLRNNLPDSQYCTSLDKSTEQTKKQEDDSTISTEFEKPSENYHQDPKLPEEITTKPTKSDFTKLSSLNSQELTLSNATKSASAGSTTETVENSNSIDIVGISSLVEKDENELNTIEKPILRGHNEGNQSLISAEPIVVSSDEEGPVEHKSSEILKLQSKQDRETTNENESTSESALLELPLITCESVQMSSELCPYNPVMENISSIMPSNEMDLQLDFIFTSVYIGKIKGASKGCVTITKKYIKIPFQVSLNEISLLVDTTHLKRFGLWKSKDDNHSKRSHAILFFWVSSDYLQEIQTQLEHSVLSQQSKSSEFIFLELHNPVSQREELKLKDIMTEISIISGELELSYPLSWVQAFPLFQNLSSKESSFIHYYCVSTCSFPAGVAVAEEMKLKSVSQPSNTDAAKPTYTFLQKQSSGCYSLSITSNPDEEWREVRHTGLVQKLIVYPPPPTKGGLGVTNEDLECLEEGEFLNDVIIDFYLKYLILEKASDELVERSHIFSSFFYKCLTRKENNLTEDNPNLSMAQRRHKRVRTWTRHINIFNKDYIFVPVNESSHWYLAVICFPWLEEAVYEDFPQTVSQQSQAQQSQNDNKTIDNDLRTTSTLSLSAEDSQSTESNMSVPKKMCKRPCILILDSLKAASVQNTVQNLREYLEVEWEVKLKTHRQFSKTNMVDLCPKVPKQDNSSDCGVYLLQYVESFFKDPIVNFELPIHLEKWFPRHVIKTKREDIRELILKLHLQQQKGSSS

[7] = biological target: Cyclin-dependent kinase 19 (Homo sapiens, UniProt Q9BWU1); assay: Navigating the Kinome. Panel member name: CDC2L6
Sequence of Cyclin-dependent kinase 19 (Q9BWU1 whole entry): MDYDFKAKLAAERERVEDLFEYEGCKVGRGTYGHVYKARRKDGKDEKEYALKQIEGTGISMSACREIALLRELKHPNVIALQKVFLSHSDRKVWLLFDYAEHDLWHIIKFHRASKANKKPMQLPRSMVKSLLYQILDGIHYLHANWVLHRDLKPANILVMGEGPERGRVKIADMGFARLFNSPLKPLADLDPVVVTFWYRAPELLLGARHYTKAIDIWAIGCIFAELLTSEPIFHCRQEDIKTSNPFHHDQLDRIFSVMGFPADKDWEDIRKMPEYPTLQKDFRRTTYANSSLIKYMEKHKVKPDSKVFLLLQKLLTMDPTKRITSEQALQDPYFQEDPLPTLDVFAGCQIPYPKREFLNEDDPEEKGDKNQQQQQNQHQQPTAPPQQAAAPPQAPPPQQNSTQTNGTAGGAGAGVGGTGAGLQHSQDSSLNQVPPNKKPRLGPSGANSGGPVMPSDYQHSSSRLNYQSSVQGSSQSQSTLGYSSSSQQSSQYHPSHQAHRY

Sequence of Death-associated protein kinase 3 (O43293 whole entry): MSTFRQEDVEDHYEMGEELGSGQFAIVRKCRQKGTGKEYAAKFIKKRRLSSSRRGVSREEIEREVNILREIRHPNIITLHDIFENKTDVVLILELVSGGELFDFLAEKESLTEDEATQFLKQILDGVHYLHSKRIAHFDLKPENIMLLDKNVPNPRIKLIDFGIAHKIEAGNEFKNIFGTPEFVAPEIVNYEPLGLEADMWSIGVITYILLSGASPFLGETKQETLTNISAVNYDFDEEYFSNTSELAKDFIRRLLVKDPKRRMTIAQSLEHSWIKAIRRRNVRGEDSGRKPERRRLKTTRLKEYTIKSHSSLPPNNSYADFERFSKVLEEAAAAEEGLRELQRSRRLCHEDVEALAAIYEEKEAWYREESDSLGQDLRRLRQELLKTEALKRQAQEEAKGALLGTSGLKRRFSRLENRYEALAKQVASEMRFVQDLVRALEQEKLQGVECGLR
Sequence of Tyrosine-protein kinase BTK (Q06187 whole entry): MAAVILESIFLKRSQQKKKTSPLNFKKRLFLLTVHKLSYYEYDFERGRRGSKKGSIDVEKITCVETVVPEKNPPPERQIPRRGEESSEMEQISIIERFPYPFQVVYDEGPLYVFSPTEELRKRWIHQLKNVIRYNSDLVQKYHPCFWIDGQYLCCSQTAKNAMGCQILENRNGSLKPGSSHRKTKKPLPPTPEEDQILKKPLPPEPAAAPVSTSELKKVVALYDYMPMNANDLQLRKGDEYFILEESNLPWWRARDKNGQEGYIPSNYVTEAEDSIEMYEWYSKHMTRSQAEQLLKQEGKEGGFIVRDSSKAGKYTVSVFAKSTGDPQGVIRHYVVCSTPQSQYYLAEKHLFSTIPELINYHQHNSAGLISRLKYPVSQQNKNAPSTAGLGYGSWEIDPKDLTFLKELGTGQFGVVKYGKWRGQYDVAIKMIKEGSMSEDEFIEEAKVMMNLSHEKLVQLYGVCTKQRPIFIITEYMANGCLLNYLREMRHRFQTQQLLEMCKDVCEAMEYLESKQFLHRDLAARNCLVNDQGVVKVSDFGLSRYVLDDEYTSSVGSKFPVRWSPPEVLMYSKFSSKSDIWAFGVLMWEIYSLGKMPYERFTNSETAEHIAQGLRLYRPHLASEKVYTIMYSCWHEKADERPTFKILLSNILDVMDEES
Sequence of Serine/threonine-protein kinase PAK 4 (O96013 whole entry): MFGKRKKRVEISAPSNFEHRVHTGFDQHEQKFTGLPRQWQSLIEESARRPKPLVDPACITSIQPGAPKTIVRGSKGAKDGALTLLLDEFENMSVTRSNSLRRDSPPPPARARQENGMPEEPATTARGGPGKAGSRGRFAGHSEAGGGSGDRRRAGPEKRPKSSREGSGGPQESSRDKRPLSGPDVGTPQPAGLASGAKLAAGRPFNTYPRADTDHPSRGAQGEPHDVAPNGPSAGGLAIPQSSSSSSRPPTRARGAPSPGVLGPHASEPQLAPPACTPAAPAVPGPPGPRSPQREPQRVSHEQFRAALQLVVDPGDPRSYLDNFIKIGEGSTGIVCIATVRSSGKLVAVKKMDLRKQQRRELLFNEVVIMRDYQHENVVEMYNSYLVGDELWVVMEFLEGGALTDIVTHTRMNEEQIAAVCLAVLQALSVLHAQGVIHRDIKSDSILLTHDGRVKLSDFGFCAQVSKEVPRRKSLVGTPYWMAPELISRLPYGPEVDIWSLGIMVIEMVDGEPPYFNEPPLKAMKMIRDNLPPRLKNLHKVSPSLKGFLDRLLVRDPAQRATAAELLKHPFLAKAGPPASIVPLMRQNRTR

Row | SMILES | Ki [1] | Ki [2] | Ki [3] | Ki [4] | Ki [5] | EC50 (Protein RecA) | IC50 [6] | Ki [7]
1 | NC(COc1cncc(-c2ccc3c(c2)C(=Cc2ccc[nH]2)C(=O)N3)c1)Cc1ccccc1 (stereo not given) | 3.98 µM (active) | 0.0251 µM (active) | 0.00126 µM (active) | 0.00501 µM (active) | 0.0316 µM (active) |  |  | 
2 | Oc1nc(Nc2ccc(F)cc2)cc2ccccc12 |  |  |  |  |  | 1.21 µM (active) | 7.05 µM (active) | 
3 | O=C1Cc2cc(-c3ccccc3)cnc2N1 |  | 20 µM (active) | > 50.1 µM (inactive) | 39.8 µM (active) |  |  |  | > 100 µM (inactive)
4 | O=C1Nc2cc(-c3ccc(O)cc3)ccc2C1=Cc1ccc[nH]1 | > 6.31 µM (inactive) | 2 µM (active) | > 1.26 µM (inactive) | 0.00794 µM (active) | > 5.01 µM (inactive) |  |  | > 100 µM (inactive)
5 | CN(C)c1cc(N/N=C\c2ccccc2)nc(N(C)C)n1 |  |  |  |  |  |  | 77.6 µM (active) | 
6 | O=C(NC1=C(Nc2ccc(F)cc2)C(=O)c2ccccc2C1=O)c1ccc(Cl)cc1 |  |  |  |  |  | 25.9 µM (inconclusive) | 24.3 µM (active) | 
